Experimental data published in US20060069132A1, “Azolecarboxamide herbicides” (priority 2004, published 2006).

How the values were obtained:
morningglory = assay: Test A pre-/postemergence herbicide test; type: in vivo, Ipomoea spp.
In short: (§1)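 Visual injury rating on a 0–100 scale (0 no effect, 100 complete control) versus untreated controls, about ten days after treatment in greenhouse. Pre: directed soil spray onto seeded sandy loam. Post: spray to runoff on plants 2–10 cm tall at one- to two-leaf stage.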

velvetleaf = assay: Test A pre-/postemergence herbicide test; type: in vivo, Abutilon theophrasti
In short: as §1

cocklebur = assay: Test C pre-/postemergence herbicide test; type: in vivo, Xanthium strumarium; details: for Cocklebur plant response rating: 500 g ai/ha
In short: (§2)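 Pre- and postemergence application, solvent/surfactant formulation; post at 1- to 4-leaf stage (2–18 cm). Greenhouse 12–14 d. Visual rating vs controls, 0 = no effect, 100 = complete control.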

lambsquarters = assay: Test C pre-/postemergence herbicide test; type: in vivo, Chenopodium album; details: for Lambsquarters plant response rating: 500 g ai/ha
In short: as §2

yellow nutsedge = assay: Test C pre-/postemergence herbicide test; type: in vivo, Cyperus esculentus; details: for Nutsedge, Yellow plant response rating: 500 g ai/ha
In short: as §2

common ragweed = assay: Test C pre-/postemergence herbicide test; type: in vivo, Ambrosia elatior; design: key to Plant response rating, Ragweed: 0 = no effect, 100 = complete control; details: for Ragweed plant response rating: 500 g ai/ha
In short: as §2

soybean = assay: Test C pre-/postemergence herbicide test; type: in vivo, Glycine max; details: for Soybean plant response rating: 500 g ai/ha
In short: as §2

[1] = tested on: common (oilseed) sunflower; assay: Test C pre-/postemergence herbicide test; type: in vivo, Helianthus annuus; details: for Plant response rating, Sunflower / Plant response rating (0 = no effect, 100 = complete control), Sunflower: preemergence; for Plant response rating (0 = no effect, 100 = complete control), Sunflower: 62 g ai/ha
In short: as §2

[2] = Postemergence, 500 g ai/ha, 0 to 100 scale, 0 no effect, 100 complete control
[3] = Postemergence, 2000 g ai/ha, 0 to 100 scale, 0 no effect, 100 complete control
[4] = Preemergence, 500 g ai/ha, visual rating, 0 to 100 scale (0 no effect, 100 complete control)
[5] = Preemergence, 2000 g ai/ha, 0 to 100 scale, 0 no effect, 100 complete control
[6] = 31 g ai/ha, preemergence, scale 0 to 100
[7] = 125 g ai/ha, scale 0-100, preemergence
[8] = Postemergence, 125 g ai/ha, scale 0 to 100, 0 no effect, 100 complete control
[9] = postemergence, 62 g ai/ha, scale 0 to 100
[10] = postemergence, 125 g ai/ha, scale 0 to 100
[11] = postemergence, 31 g ai/ha, scale 0 to 100
[12] = 125 g ai/ha, scale 0 (no effect) to 100 (complete control), visual, 12 to 14 days, preemergence
[13] = 250 g ai/ha, scale 0 to 100 (0 no effect, 100 complete control), visual, 12 to 14 days, preemergence
[14] = Postemergence, 250 g ai/ha, scale 0 to 100, 0 no effect, 100 complete control
[15] = Preemergence, scale 0 to 100, 0 no effect, 100 complete control
[16] = 125 g ai/ha, scale 0 (no effect) to 100 (complete control), visual, 12 to 14 days
[17] = Preemergence, 2000 g ai/ha, visual rating, 0 to 100 scale (0 no effect, 100 complete control)

C=Cn1nc(C(C)(C)C)cc1C(=O)Nc1cccc(C(=O)NCC)c1 [Compound 33]
Plant response rating, Morningglory (morningglory; [2]): 10 | Plant response rating, Morningglory (morningglory; [3]): 25 | Morningglory plant response rating (morningglory; [4]): 35 | Morningglory plant response rating (morningglory; [5]): 70 | Plant response rating, Velvetleaf (velvetleaf; [2]): 30 | Plant response rating, Velvetleaf (velvetleaf; [3]): 40 | Velvetleaf plant response rating (velvetleaf; [4]): 20 | Velvetleaf plant response rating (velvetleaf; [5]): 80 | Plant response rating, Cocklebur (cocklebur; [6]): 0 | Plant response rating (0 = no effect, 100 = complete control), Cocklebur (cocklebur; 62 g ai/ha, preemergence): 0 | Plant response rating, Cocklebur (cocklebur; [7]): 30 | Plant response rating, Cocklebur (cocklebur; [8]): 70 | Plant response rating, Cocklebur (cocklebur; postemergence, 16 g ai/ha, scale 0 to 100): 20 | Plant response rating, Cocklebur (cocklebur; [9]): 50 | Plant response rating, Lambsquarters (lambsquarters; [6]): 80 | Plant response rating (0 = no effect, 100 = complete control), Lambsquarters (lambsquarters; 62 g ai/ha, preemergence): 100 | Plant response rating, Lambsquarters (lambsquarters; [7]): 100 | Plant response rating, Lambsquarters (lambsquarters; [10]): 90 | Plant response rating, Lambsquarters (lambsquarters; [11]): 90 | Plant response rating, Lambsquarters (lambsquarters; [9]): 90 | Plant response rating, Nutsedge, Yellow (yellow nutsedge; 16 g ai/ha, scale 0 to 100, last section of Table C, preemergence): 0 | Plant response rating, Nutsedge, Yellow (yellow nutsedge; [6]): 0 | Plant response rating (0 = no effect, 100 = complete control), Nutsedge, Yellow (yellow nutsedge; 62 g ai/ha, preemergence): 0 | Plant response rating, Nutsedge, Yellow (yellow nutsedge; [10]): 10 | Plant response rating, Nutsedge, Yellow (yellow nutsedge; [11]): 0 | Plant response rating, Nutsedge, Yellow (yellow nutsedge; [9]): 0 | Plant response rating, Ragweed (common ragweed; [6]): 0 | Plant response rating (0 = no effect, 100 = complete control), Ragweed (common ragweed; 62 g ai/ha, preemergence): 0 | Plant response rating, Ragweed (common ragweed; [10]): 70 | Plant response rating, Ragweed (common ragweed; [9]): 60 | Plant response rating, Soybean (soybean; [6]): 0 | Plant response rating (0 = no effect, 100 = complete control), Soybean (soybean; 62 g ai/ha, preemergence): 0 | Plant response rating, Soybean (soybean; [10]): 90 | Plant response rating, Soybean (soybean; [11]): 80 | Plant response rating, Soybean (soybean; [9]): 80 | Plant response rating, Sunflower ([1]; 31 g ai/ha, scale 0 to 100): 0 | Plant response rating (0 = no effect, 100 = complete control), Sunflower [1]: 0

C=CCNC(=O)c1cccc(NC(=O)c2cc(C(C)(C)C)nn2CC)c1 [Compound 46]
Plant response rating, Morningglory (morningglory; [2]): 40 | Plant response rating, Morningglory (morningglory; [3]): 65 | Morningglory plant response rating (morningglory; [4]): 40 | Morningglory plant response rating (morningglory; [5]): 65 | Plant response rating, Velvetleaf (velvetleaf; [3]): 75 | Velvetleaf plant response rating (velvetleaf; [4]): 30 | Velvetleaf plant response rating (velvetleaf; [5]): 85 | Plant response rating (0 = no effect, 100 = complete control), Cocklebur (cocklebur; 62 g ai/ha, preemergence): 0 | Plant response rating, Cocklebur (cocklebur; [12]): 40 | Plant response rating, Cocklebur (cocklebur; [13]): 90 | Cocklebur plant response rating (cocklebur; Postemergence, scale 0 to 100): 90 | Plant response rating, Cocklebur (cocklebur; [8]): 70 | Plant response rating, Cocklebur (cocklebur; [14]): 70 | Cocklebur plant response rating (cocklebur; [15]): 90 | Plant response rating, Cocklebur (cocklebur; [9]): 60 | Plant response rating (0 = no effect, 100 = complete control), Lambsquarters (lambsquarters; 62 g ai/ha, preemergence): 100 | Plant response rating, Lambsquarters (lambsquarters; [12]): 100 | Plant response rating, Lambsquarters (lambsquarters; [13]): 100 | Lambsquarters plant response rating (lambsquarters; Postemergence, scale 0 to 100): 100 | Plant response rating, Lambsquarters (lambsquarters; [14]): 100 | Lambsquarters plant response rating (lambsquarters; [15]): 100 | Plant response rating, Lambsquarters (lambsquarters; [9]): 80 | Plant response rating (0 = no effect, 100 = complete control), Nutsedge, Yellow (yellow nutsedge; 62 g ai/ha, preemergence): 0 | Plant response rating, Nutsedge, Yellow (yellow nutsedge; [12]): 0 | Plant response rating, Nutsedge, Yellow (yellow nutsedge; [13]): 0 | Nutsedge, Yellow plant response rating (yellow nutsedge; Postemergence, scale 0 to 100): 40 | Plant response rating, Nutsedge, Yellow (yellow nutsedge; [14]): 20 | Nutsedge, Yellow plant response rating (yellow nutsedge; [15]): 0 | Plant response rating, Nutsedge, Yellow (yellow nutsedge; [9]): 20 | Plant response rating (0 = no effect, 100 = complete control), Ragweed (common ragweed; 62 g ai/ha, preemergence): 10 | Plant response rating, Ragweed (common ragweed; [12]): 40 | Plant response rating, Ragweed (common ragweed; [13]): 90 | Ragweed plant response rating (common ragweed; Postemergence, scale 0 to 100): 80 | Plant response rating, Ragweed (common ragweed; [14]): 80 | Ragweed plant response rating (common ragweed; [15]): 90 | Plant response rating, Ragweed (common ragweed; [9]): 70 | Plant response rating (0 = no effect, 100 = complete control), Soybean (soybean; 62 g ai/ha, preemergence): 0 | Plant response rating, Soybean (soybean; [12]): 0 | Plant response rating, Soybean (soybean; [13]): 10 | Soybean plant response rating (soybean; Postemergence, scale 0 to 100): 100 | Plant response rating, Soybean (soybean; [14]): 100 | Soybean plant response rating (soybean; [15]): 10 | Plant response rating, Soybean (soybean; [9]): 100 | Plant response rating (0 = no effect, 100 = complete control), Sunflower [1]: 0 | Plant response rating, Sunflower [1, 16]: 10 | Plant response rating, Sunflower ([1]; 250 g ai/ha, scale 0 to 100 (0 no effect, 100 complete control), visual, 12 to 14 days): 10 | Sunflower plant response rating ([1]; Preemergence, 500 g ai/ha, scale 0 to 100, 0 no effect, 100 complete control): 10

C=Cn1nc(C(C)(C)C)cc1C(=O)Nc1cccc(C(C)=NO)c1 [Compound 114]
Morningglory plant response rating (morningglory; [2]): 10 | Plant response rating, Morningglory (morningglory; [3]): 25 | Morningglory plant response rating (morningglory; [4]): 35 | Morningglory plant response rating (morningglory; [17]): 70 | Velvetleaf plant response rating (velvetleaf; [2]): 20 | Plant response rating, Velvetleaf (velvetleaf; [3]): 20 | Velvetleaf plant response rating (velvetleaf; [4]): 35 | Velvetleaf plant response rating (velvetleaf; [17]): 60 | Plant response rating, Cocklebur (cocklebur; [6]): 0 | Plant response rating (0 = no effect, 100 = complete control), Cocklebur (cocklebur; 62 g ai/ha, preemergence): 20 | Plant response rating, Cocklebur (cocklebur; [12]): 20 | Plant response rating, Cocklebur (cocklebur; [13]): 30 | Plant response rating, Cocklebur (cocklebur; [14]): 30 | Plant response rating, Cocklebur (cocklebur; [10]): 30 | Plant response rating, Cocklebur (cocklebur; [11]): 30 | Plant response rating, Cocklebur (cocklebur; [9]): 30 | Plant response rating, Lambsquarters (lambsquarters; [6]): 40 | Plant response rating (0 = no effect, 100 = complete control), Lambsquarters (lambsquarters; 62 g ai/ha, preemergence): 80 | Plant response rating, Lambsquarters (lambsquarters; [12]): 100 | Plant response rating, Lambsquarters (lambsquarters; [14]): 100 | Plant response rating, Lambsquarters (lambsquarters; [10]): 90 | Plant response rating, Lambsquarters (lambsquarters; [9]): 90 | Plant response rating, Nutsedge, Yellow (yellow nutsedge; [6]): 0 | Plant response rating (0 = no effect, 100 = complete control), Nutsedge, Yellow (yellow nutsedge; 62 g ai/ha, preemergence): 0 | Plant response rating, Nutsedge, Yellow (yellow nutsedge; [12]): 0 | Plant response rating, Nutsedge, Yellow (yellow nutsedge; [14]): 10 | Plant response rating, Nutsedge, Yellow (yellow nutsedge; [10]): 0 | Plant response rating, Nutsedge, Yellow (yellow nutsedge; [9]): 0 | Plant response rating, Ragweed (common ragweed; [6]): 10 | Plant response rating (0 = no effect, 100 = complete control), Ragweed (common ragweed; 62 g ai/ha, preemergence): 10 | Plant response rating, Ragweed (common ragweed; [12]): 10 | Plant response rating, Ragweed (common ragweed; [14]): 90 | Plant response rating, Ragweed (common ragweed; [10]): 80 | Plant response rating, Ragweed (common ragweed; [9]): 60 | Plant response rating, Soybean (soybean; [6]): 60 | Plant response rating (0 = no effect, 100 = complete control), Soybean (soybean; 62 g ai/ha, preemergence): 70 | Plant response rating, Soybean (soybean; [14]): 70 | Plant response rating, Soybean (soybean; [10]): 70 | Plant response rating, Soybean (soybean; [9]): 70 | Plant response rating, Sunflower ([1]; 31 g ai/ha, scale 0 to 100): 30 | Plant response rating (0 = no effect, 100 = complete control), Sunflower [1]: 30 | Plant response rating, Sunflower [1, 16]: 30
